# Results filed as inconclusive are left out. Activity calls are given as the source filed them.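 How the source made its calls: active means Normal-ribosome green reporter loss at least double humanized-ribosome red reporter loss, with overall culture growth inhibition under a set limit; inconclusive means no clear call, values can overlap the other calls; inactive means the rest.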
# System: E. coli wild-type GFP growth, mixed culture, 24 h
# Assay: E. coli growth inhibition, wild-type GFP versus H38 humanized RFP strain – H38 mutant RFP vs wild-type GFP, cherry-pick, dose response (AID 977630)
# [1] = E. coli mixed culture total OD600 growth, 24 h
SMILES,AC50,AC50 [1]
Cc1noc(NS(=O)(=O)c2ccc(NC(=O)c3cc(-c4ccccc4Cl)nc4ccccc34)cc2)c1C,> 100 µM (inactive),> 100 µM
Cc1cccc(CN2C(=O)c3ccccc3Sc3ccc(C(=O)NCCN4CCOCC4)cc32)c1,–,> 100 µM
COc1cccc(CC(=O)OC(C)C(=O)NCc2ccc3c(c2)OCO3)c1 (centres undefined),> 100 µM (inactive),–
Cc1ccc(NC(=O)COC(=O)CCNS(=O)(=O)c2c(Cl)cccc2Cl)cc1,–,> 100 µM
O=C(Nc1ccc(C(=O)Nc2ccccc2Cl)cc1)c1cccnc1,> 100 µM (inactive),–
CCc1cc(C(=O)N2CCCC(C(=O)c3cccc4ccccc34)C2)n(C)n1 (centres undefined),> 100 µM (inactive),–
Cc1nn(C(C)(C)C)c(OC(=O)CC(C)C)c1S(=O)(=O)c1ccccc1,> 100 µM (inactive),–
O=C(COc1ccccc1Cl)Nc1nc(-c2ccncc2)cs1,> 100 µM (inactive),–
Cc1ccc(-c2nc3ccc(NS(=O)(=O)c4ccccc4)cc3[nH]2)o1,> 100 µM (inactive),33.6 µM
O=S1(=O)N[C@H](Cc2ccccc2)COc2cccc(N3CCC[C@H]3CO)c21,> 100 µM (inactive),–
CSc1nc2nc3c(cc2c(=O)n1-c1ccccc1C)CCCC3,> 100 µM (inactive),> 100 µM
CCOc1ncccc1C(=O)OCC(=O)NCCCc1ccccc1,> 100 µM (inactive),–
CC(C)(C)C1CCC(C(=O)OCC(=O)N2CCN(C(=O)c3ccco3)CC2)CC1 (centres undefined),> 100 µM (inactive),–
CC(=O)Nc1ccc(CNc2nc(NCCN(C)C)nc3cc(-c4ccccc4)sc23)cc1,> 100 µM (inactive),–
O=C(Nc1ccc2nc(-c3cccnc3)[nH]c2c1)c1ccco1,> 100 µM (inactive),–
O=S1(=O)c2ccc(Br)cc2OCCC2CCCCN21 (centres undefined),> 100 µM (inactive),> 100 µM
CCOc1ccc(OCCn2c(=S)[nH]c3c(N)ncnc32)cc1,> 100 µM (inactive),–
CCCC(=O)Nc1sc2c(c1C(=O)Nc1ccccn1)CCCC2,> 100 µM (inactive),> 100 µM
CC1CCN(C(=O)COC(=O)c2ccccc2NC(=O)c2ccco2)CC1,> 100 µM (inactive),–
O=c1[nH]c(C2CCCN(S(=O)(=O)c3ccccc3Cl)C2)nc2c1nnn2Cc1ccc2c(c1)OCCO2 (centres undefined),> 100 µM (inactive),> 100 µM
Cc1onc(-c2ccccc2Cl)c1C(=O)OCC(=O)c1ccccc1,–,> 100 µM
O=c1c2cc(Br)ccc2[nH]c(=S)n1Cc1ccccc1,> 100 µM (inactive),–

SMILES,AC50,AC50 [1]
O=C(CCCOc1ccc(Cl)cc1Cl)Nc1ccccc1C(=O)O,> 100 µM (inactive),> 100 µM
N#Cc1nc(-c2ccco2)oc1NCc1ccccc1Cl,> 100 µM (inactive),41.5 µM
CCCCOc1ccc(-c2nnn(CCC(=O)N3CCOCC3)n2)cc1,–,> 100 µM
O=C1c2ccccc2C(c2nnnn2C2CCCCC2)N1CCc1ccc(O)cc1 (centres undefined),> 100 µM (inactive),> 100 µM
CC1(C)CC2CC(C)(CN2c2ncnc3ccccc23)C1 (centres undefined),> 100 µM (inactive),> 100 µM
COc1cc(NC(=O)COC(=O)CC(C)(C)C)c(C)cc1[N+](=O)[O-],> 100 µM (inactive),> 100 µM
O=C(NCc1ccc2c(c1)OCO2)C1CCCN1S(=O)(=O)c1ccc(Cl)cc1 (centres undefined),> 100 µM (inactive),–
Cc1c(Cc2ccccc2)sc(NC(=O)Cc2ccccc2)c1C(N)=O,> 100 µM (inactive),–
CCOc1ccc2nc(SCC(=O)Nc3nonc3C)[nH]c2c1,> 100 µM (inactive),> 100 µM
CC(=O)NCCOc1nc(N2CCCCC2)nc(N2CCCCC2)n1,> 100 µM (inactive),> 100 µM
Cc1cccc(C(=O)NCC(=O)N2CC=C(c3ccccc3)CC2)c1,> 100 µM (inactive),–
COC(=O)CC#C[C@H](C)[C@@H](NS(=O)(=O)c1ccc([N+](=O)[O-])cc1)C(C)(C)C,> 100 µM (inactive),–
Cc1ccc(S(=O)(=O)Nc2ccccc2CNc2cccc(C)n2)cc1,> 100 µM (inactive),–
Fc1ccc(-c2nc3ccc(Cl)cn3c2Cc2cccc(Cl)c2)cc1,–,> 100 µM
Cc1ccc(S(=O)(=O)NCc2c(-c3ccccc3)noc2C)cc1,> 100 µM (inactive),–
COc1ccc2nc(SCC(=O)Nc3ccccc3)[nH]c2c1,> 100 µM (inactive),> 100 µM
Cc1nnn(C23CC4CC(CC(CC(=O)Nc5ccc(C)c(C)c5)(C4)C2)C3)n1,> 100 µM (inactive),–
O=C1OC[C@@H]2CCCN2C(=O)[C@@H](CC(=O)N(CCO)Cc2ccccc2)C/C=C\C[C@H]1Cc1ccc(F)cc1,> 100 µM (inactive),–
Cc1cc(C(=O)OCC(=O)Nc2cccc(S(N)(=O)=O)c2)c2ccccc2n1,> 100 µM (inactive),> 100 µM
Cc1cc(CNC(=O)c2cc(-c3ccccc3)nc3ccccc23)nn1C,> 100 µM (inactive),–
CCc1cccc(NC(=O)c2ccc3c(=O)n4c(nc3c2)CCCCC4)c1,> 100 µM (inactive),–
CC(=O)Nc1nc(C)c(-c2csc(Nc3ccccn3)n2)s1,> 100 µM (inactive),–
